Tests used:
[1] = target: Cannabinoid receptor 1 (Homo sapiens, UniProt P21554)
[2] = target: Cannabinoid receptor 2 (Homo sapiens, UniProt P34972)
Cannabinoid receptor 2, sequence (P34972 whole entry): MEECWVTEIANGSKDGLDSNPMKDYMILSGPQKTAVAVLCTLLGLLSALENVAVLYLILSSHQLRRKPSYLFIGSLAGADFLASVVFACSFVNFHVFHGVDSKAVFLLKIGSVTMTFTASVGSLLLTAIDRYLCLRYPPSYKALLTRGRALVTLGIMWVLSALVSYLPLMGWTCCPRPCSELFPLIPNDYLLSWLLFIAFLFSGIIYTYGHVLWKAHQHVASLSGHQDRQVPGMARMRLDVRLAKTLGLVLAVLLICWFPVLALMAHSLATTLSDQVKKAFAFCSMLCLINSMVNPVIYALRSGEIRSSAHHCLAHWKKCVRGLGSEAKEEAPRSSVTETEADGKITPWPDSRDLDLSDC

Cannabinoid receptor 1, sequence (P21554 whole entry): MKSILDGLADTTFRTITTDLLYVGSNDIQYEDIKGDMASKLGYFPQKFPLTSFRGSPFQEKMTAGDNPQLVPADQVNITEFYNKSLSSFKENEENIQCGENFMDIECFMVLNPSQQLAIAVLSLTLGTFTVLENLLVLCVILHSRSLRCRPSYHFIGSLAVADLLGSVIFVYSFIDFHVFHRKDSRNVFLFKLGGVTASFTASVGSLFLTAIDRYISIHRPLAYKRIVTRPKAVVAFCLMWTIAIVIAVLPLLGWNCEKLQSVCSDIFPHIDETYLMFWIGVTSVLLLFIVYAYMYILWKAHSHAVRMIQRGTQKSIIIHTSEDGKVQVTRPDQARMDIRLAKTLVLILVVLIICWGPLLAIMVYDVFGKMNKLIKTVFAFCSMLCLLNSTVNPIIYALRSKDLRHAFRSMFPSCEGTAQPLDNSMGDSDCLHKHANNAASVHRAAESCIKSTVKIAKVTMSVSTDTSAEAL

CCc1c(C(=O)NN2CCCCC2)nn(-c2ccc(Cl)cc2Cl)c1-c1ccc(Br)cc1 [SR 147778]
Ki [1]: 3.5 nM | Ki [2]: 442 nM

From BindingDB's records for doi:10.1124/jpet.104.067884 (Sanofi-Synthelabo Recherche, 2004)
